Experimental data taken from US11566007B2, “Ras inhibitors” (Revolution Medicines, Inc., priority 2019, dated 2023).

Columns and labels:
[1] = target: KRAS G12D (Homo sapiens (Human), UniProt P01116+P62937, G12D); test: Ras-Raf (BRAF RBD) disruption / FRET / MOA assay, KRAS G12D; type: biochemical; settings: Ras-Raf disruption/FRET/MOA assay; class symbols; read-out: KRAS G12D FRET data IC50
Procedure, shortened: (§1)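 A 10-point, 3-fold dilution series topping at 30 μM final was incubated 3 h at 25° C with the Ras/cyclophilin A/BRAF RBD mixture.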

[2] = system: NCI-H358 cells (K-Ras G12C); test: Potency assay: pERK in NCI-H358 cells; type: cell-based, human; settings: Homo sapiens, NCI-H358; H358 KRAS G12C; read-out: pERK EC50
Procedure, shortened: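 pERK decrease read by AlphaLISA SureFire p-ERK1/2 or In-Cell Western after 4 h compound exposure at 37 °C, 5% CO2.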

[3] = target: KRAS G13D (Homo sapiens (Human), UniProt P01116+P62937, G13D); test: Ras-Raf (BRAF RBD) disruption / FRET / MOA assay, KRAS G13D; type: biochemical; settings: read-out: IC50* KRAS G13D FRET data
Procedure, shortened: as §1

[4] = target: KRAS WT (Homo sapiens (Human), UniProt P01116+P62937); test: Ras-Raf (BRAF RBD) disruption / FRET / MOA assay, KRAS WT; type: biochemical; settings: read-out: IC50* KRAS WT FRET data
Procedure, shortened: as §1

[5] = target: K-Ras G12C (Homo sapiens (Human), UniProt P01116+P62937, G12C); test: Ras-Raf (BRAF RBD) disruption / FRET / MOA assay, KRAS G12C; type: biochemical; settings: KRAS G12C; Ras-Raf disruption/FRET/MOA assay; read-out: IC50* KRAS G12C FRET data
Procedure, shortened: as §1

[6] = target: NRAS G12C (Homo sapiens (Human), UniProt P01111+P62937, G12C); test: Ras-Raf (BRAF RBD) disruption / FRET / MOA assay, NRAS G12C; type: biochemical; settings: read-out: IC50* NRAS G12C FRET data
Procedure, shortened: as §1

[7] = target: KRAS G12V (Homo sapiens (Human), UniProt P01116+P62937, G12V); test: Ras-Raf (BRAF RBD) disruption / FRET / MOA assay, KRAS G12V; type: biochemical; settings: read-out: IC50* KRAS G12V FRET data
Procedure, shortened: as §1

[8] = target: K-Ras G13C (Homo sapiens (Human), UniProt P01116+P62937, G13C); test: Ras-Raf (BRAF RBD) disruption / FRET / MOA assay, KRAS G13C; type: biochemical; settings: KRAS G13C; Ras-Raf disruption/FRET/MOA assay; read-out: IC50* KRAS G13C FRET data
Procedure, shortened: as §1

[9] = target: KRAS G12S (Homo sapiens (Human), UniProt P01116+P62937, G12S); test: Ras-Raf (BRAF RBD) disruption / FRET / MOA assay, KRAS G12S; type: biochemical; settings: Ras-Raf disruption/FRET/MOA assay; class symbols; read-out: KRAS G12S FRET data IC50
Procedure, shortened: as §1

[10] = system: NCI-H358 (K-Ras G12C); test: CellTiter-Glo cell viability assay, NCI-H358; type: cell-based, human; settings: Homo sapiens, NCI-H358, 120 h, NCI-H358, 5-day treatment; class symbols; read-out: Additional H358 Cell Viability assay data (K-Ras G12C, IC50)
Procedure, shortened: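 Compounds dispensed directly onto seeded K-Ras mutant cells; plates read on day 5 after ~30 min equilibration to room temperature, by CellTiter-Glo luminescence. Signal normalized as (sample/mean DMSO)×100, then fitted to a four-parameter logistic curve.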

K-Ras G13C, sequence (P01116-2 other isoform, or with tags, fused parts or gaps G13C): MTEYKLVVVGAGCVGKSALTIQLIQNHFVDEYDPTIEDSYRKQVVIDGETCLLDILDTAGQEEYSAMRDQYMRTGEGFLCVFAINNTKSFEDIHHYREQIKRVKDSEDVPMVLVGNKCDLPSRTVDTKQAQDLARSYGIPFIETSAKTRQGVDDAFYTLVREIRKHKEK
K-Ras G13C, sequence (P62937 whole entry): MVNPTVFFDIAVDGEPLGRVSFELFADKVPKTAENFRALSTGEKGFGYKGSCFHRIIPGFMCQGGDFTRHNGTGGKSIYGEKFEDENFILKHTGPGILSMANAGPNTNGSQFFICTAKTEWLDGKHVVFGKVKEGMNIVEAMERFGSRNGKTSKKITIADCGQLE
KRAS G12S, sequence (P01116-2 other isoform, or with tags, fused parts or gaps G12S): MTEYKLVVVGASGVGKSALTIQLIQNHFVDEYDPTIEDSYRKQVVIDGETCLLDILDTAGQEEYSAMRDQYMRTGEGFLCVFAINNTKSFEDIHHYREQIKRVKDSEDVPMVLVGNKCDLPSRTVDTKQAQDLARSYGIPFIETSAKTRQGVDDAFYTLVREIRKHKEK
KRAS G12S, sequence (P62937 whole entry): as the sequence (P62937 whole entry) above
KRAS G12D, sequence (P01116-2 other isoform, or with tags, fused parts or gaps G12D): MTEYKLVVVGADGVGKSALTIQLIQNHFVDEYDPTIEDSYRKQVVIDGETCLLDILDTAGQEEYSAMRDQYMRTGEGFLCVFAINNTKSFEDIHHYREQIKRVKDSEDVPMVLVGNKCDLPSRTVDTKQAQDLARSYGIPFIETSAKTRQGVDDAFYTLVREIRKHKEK
KRAS G12D, sequence (P62937 whole entry): as the sequence (P62937 whole entry) above
KRAS G13D, sequence (P01116-2 other isoform, or with tags, fused parts or gaps G13D): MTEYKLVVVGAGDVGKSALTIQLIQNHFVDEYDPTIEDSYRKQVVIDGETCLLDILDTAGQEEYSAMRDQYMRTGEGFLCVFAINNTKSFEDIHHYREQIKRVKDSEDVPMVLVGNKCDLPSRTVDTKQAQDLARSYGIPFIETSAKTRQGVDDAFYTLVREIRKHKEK
KRAS G13D, sequence (P62937 whole entry): as the sequence (P62937 whole entry) above
NRAS G12C, sequence (P01111 whole entry G12C): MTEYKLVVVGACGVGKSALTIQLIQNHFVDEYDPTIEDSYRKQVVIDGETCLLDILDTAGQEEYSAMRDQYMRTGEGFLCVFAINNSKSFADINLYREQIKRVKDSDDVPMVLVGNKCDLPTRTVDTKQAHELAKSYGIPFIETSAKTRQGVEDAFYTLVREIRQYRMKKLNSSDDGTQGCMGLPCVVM
NRAS G12C, sequence (P62937 whole entry): as the sequence (P62937 whole entry) above
K-Ras G12C, sequence (P01116-2 other isoform, or with tags, fused parts or gaps G12C): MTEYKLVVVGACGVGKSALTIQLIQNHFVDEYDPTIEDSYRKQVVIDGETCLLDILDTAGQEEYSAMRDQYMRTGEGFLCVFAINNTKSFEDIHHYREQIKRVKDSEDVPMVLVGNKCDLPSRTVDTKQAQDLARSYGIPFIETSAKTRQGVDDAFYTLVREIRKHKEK
K-Ras G12C, sequence (P62937 whole entry): as the sequence (P62937 whole entry) above
KRAS WT, sequence (P01116-2 other isoform, or with tags, fused parts or gaps): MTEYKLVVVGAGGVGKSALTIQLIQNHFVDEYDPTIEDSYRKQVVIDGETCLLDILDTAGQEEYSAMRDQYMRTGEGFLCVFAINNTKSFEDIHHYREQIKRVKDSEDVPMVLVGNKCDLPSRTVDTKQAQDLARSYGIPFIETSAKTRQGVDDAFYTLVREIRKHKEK
KRAS WT, sequence (P62937 whole entry): as the sequence (P62937 whole entry) above
KRAS G12V, sequence (P01116-2 other isoform, or with tags, fused parts or gaps G12V): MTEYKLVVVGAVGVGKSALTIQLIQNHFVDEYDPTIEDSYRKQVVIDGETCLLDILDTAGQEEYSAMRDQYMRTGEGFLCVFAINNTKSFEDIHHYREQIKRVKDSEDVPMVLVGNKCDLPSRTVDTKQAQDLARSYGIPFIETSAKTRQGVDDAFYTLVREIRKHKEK
KRAS G12V, sequence (P62937 whole entry): as the sequence (P62937 whole entry) above

Row | Compound | IC50 [1] | EC50 [2] | IC50 [3] | IC50 [4] | IC50 [5] | IC50 [6] | IC50 [7] | IC50 [8] | IC50 [9] | IC50 [10]
1 | C=CC(=O)N1CC(F)(C(=O)N(C)[C@H](C(=O)N[C@H]2Cc3cccc(c3)-c3ccc4c(c3)c(c(-c3cccnc3[C@H](C)OC)n4CC)CC(C)(C)COC(=O)[C@@H]3CCCN(N3)C2=O)C(C)C)C1 (atropisomer, axis not shown) [Example A517] | 1000 to 10000 nM | < 5000 nM | 1000 to 10000 nM | 100 to 1000 nM | 10 to 100 nM | 10 to 100 nM | 100 to 1000 nM | 10 to 100 nM | 100 to 1000 nM | < 10 nM
2 | C=CC(=O)N1CCC(F)(C(=O)N(C)[C@H](C(=O)N[C@H]2Cc3cccc(c3)-c3ccc4c(c3)c(c(-c3cccnc3[C@H](C)OC)n4CC)CC(C)(C)COC(=O)[C@@H]3CCCN(N3)C2=O)C(C)C)CC1 (atropisomer, axis not shown) [Example A518] | 1000 to 10000 nM | < 5000 nM | 100 to 1000 nM | 100 to 1000 nM | 10 to 100 nM | 10 to 100 nM | 100 to 1000 nM | 100 to 1000 nM | 100 to 1000 nM | < 10 nM
3 | C=CC(=O)Nc1cnc(C(=O)N(C)[C@H](C(=O)N[C@H]2Cc3cccc(c3)-c3ccc4c(c3)c(c(-c3cccnc3[C@H](C)OC)n4CC)CC(C)(C)COC(=O)[C@@H]3CCCN(N3)C2=O)C(C)C)n1C (atropisomer, axis not shown) [Example A524] | > 10000 nM | < 5000 nM | > 10000 nM | > 10000 nM | 100 to 1000 nM | 100 to 1000 nM | > 10000 nM | 100 to 1000 nM | > 10000 nM | 10 to 100 nM
4 | C#CCn1c(-c2cccnc2[C@H](C)OC)c2c3cc(ccc31)-c1cccc(c1)C[C@H](NC(=O)[C@H](C(C)C)N(C)C(=O)[C@H]1CCN(C(=O)C=C)C1)C(=O)N1CCC[C@H](N1)C(=O)OCC(C)(C)C2 (atropisomer, axis not shown) [Example A530] | > 10000 nM | < 5000 nM | > 10000 nM | 1000 to 10000 nM | 100 to 1000 nM | 100 to 1000 nM | 1000 to 10000 nM | 1000 to 10000 nM | 1000 to 10000 nM | 10 to 100 nM
5 | CCn1c(-c2cccnc2[C@H](C)OC)c2c3cc(ccc31)-c1cccc(c1)C[C@H](NC(=O)[C@H](C(C)C)N(C)C(=O)[C@H]1CCN(C(=O)C#CC3(N(C)C)CCOCC3)C1)C(=O)N1CCC[C@H](N1)C(=O)OCC(C)(C)C2 (atropisomer, axis not shown) [Example A532] | > 10000 nM | < 5000 nM | > 10000 nM | 1000 to 10000 nM | 10 to 100 nM | 10 to 100 nM | 1000 to 10000 nM | 1000 to 10000 nM | 1000 to 10000 nM | < 10 nM
6 | CC#CC(=O)N1CC[C@@]2(CCN([C@H](C(=O)N[C@H]3Cc4nc(cs4)-c4ccc5c(c4)c(c(-c4cccnc4[C@H](C)OC)n5CC)CC(C)(C)COC(=O)[C@@H]4CCCN(N4)C3=O)C(C)C)C2=O)C1 (atropisomer, axis not shown) [Example A535] | > 10000 nM | < 5000 nM | > 10000 nM | > 10000 nM | 1000 to 10000 nM | 1000 to 10000 nM | > 10000 nM | 1000 to 10000 nM | 1000 to 10000 nM | 10 to 100 nM
7 | C=CC(=O)N1CC[C@H](C(=O)N(C)[C@H](C(=O)N[C@H]2Cc3cc(O)cc(c3)-c3ccc4c(c3)c(c(-c3cc(CN(C)C)cnc3[C@H](C)OC)n4CC)CC(C)(C)COC(=O)[C@@H]3CCCN(N3)C2=O)C(C)C)C1 (atropisomer, axis not shown) [Example A536] | 1000 to 10000 nM | < 5000 nM | 100 to 1000 nM | 100 to 1000 nM | 10 to 100 nM | 10 to 100 nM | 100 to 1000 nM | 100 to 1000 nM | 100 to 1000 nM | 10 to 100 nM
8 | CCn1c(-c2cccnc2[C@H](C)OC)c2c3cc(ccc31)-c1cc(cc(C(F)F)c1)C[C@H](NC(=O)C(COC1CN(C(=O)C#CC(C)(C)N(C)C)C1)C(C)C)C(=O)N1CCC[C@H](N1)C(=O)OCC(C)(C)C2 (mixture of isomers) [Example A404] | > 10000 nM | < 5000 nM | > 10000 nM | > 10000 nM | 100 to 1000 nM | 100 to 1000 nM | > 10000 nM | > 10000 nM | > 10000 nM | 10 to 100 nM
9 | C=CC(=O)N1CC(OCC(C(=O)N[C@H]2Cc3cccc(c3)-c3ccc4c(c3)c(c(-c3cccnc3[C@H](C)OC)n4CC(F)(F)F)CC(C)(C)COC(=O)[C@@H]3CCCN(N3)C2=O)C(C)C)C1 (mixture of isomers) [Example A453] | > 10000 nM | < 5000 nM | > 10000 nM | > 10000 nM | 1000 to 10000 nM | 1000 to 10000 nM | > 10000 nM | > 10000 nM | > 10000 nM | 100 to 1000 nM
10 | C=CC(=O)N1CC(OCC(C(=O)N[C@H]2Cc3nc(cs3)-c3ccc4c(c3)c(c(-c3cccnc3[C@H](C)OC)n4CC)CC(C)(C)COC(=O)[C@@H]3CCCN(N3)C2=O)C(C)C)C1 (mixture of isomers) [Example A473] | > 10000 nM | < 5000 nM | 1000 to 10000 nM | 1000 to 10000 nM | 100 to 1000 nM | 100 to 1000 nM | 1000 to 10000 nM | 1000 to 10000 nM | 1000 to 10000 nM | 10 to 100 nM
11 | CCn1c(-c2cccnc2[C@H](C)OC)c2c3cc(ccc31)-c1cccc(c1)C[C@H](NC(=O)[C@H](C(C)C)N(C)C(=O)[C@H]1CCN(C(=O)C#CC3CCO3)C1)C(=O)N1CCC[C@H](N1)C(=O)OCC(C)(C)C2 (mixture of isomers) [Example A509] | > 10000 nM | < 5000 nM | 1000 to 10000 nM | 1000 to 10000 nM | < 10 nM | < 10 nM | 1000 to 10000 nM | 100 to 1000 nM | 1000 to 10000 nM | < 10 nM
12 | CCn1c(-c2cccnc2[C@H](C)OC)c2c3cc(ccc31)-c1csc(n1)C[C@H](NC(=O)[C@H](C(C)C)N1CC[C@@]3(CCN(C(=O)C#CC(C)(C)N(C)C)C3)C1=O)C(=O)N1CCC[C@H](N1)C(=O)OCC(C)(C)C2 (single isomer, unassigned) [Example A425] | > 10000 nM | < 5000 nM | > 10000 nM | > 10000 nM | < 10 nM | 10 to 100 nM | > 10000 nM | 100 to 1000 nM | 1000 to 10000 nM | < 10 nM
